This passage reports inhibition results from patent EP2848286A1, “Cosmetic composition comprising chicoric acid” (DSM IP Assets B.V., priority 2013, dated 2015).

SMILES strings stand for the structures. Read-outs that look alike come from different tables or passages of the source.

The experiment relates to C3H10 T1/2 cells. In words: Adipocyte differentiation / automated determination of lipid accumulation in adipocytes. It is filed as cell-based. The following applies: Mus musculus, C3H 10T1/2, 168 h, 50 micromolar chicoric acid, differentiated C3H10 T1/2 adipocytes, 7 days in DM-Supplemented (200nM Insulin, 10µM Rosiglitazone). As for the experimental part:
C3H10 T1/2 cells were seeded on Collagen Type I coated 24-well plates at a cell density of 3.8x10^4 cells/mL in Differentiation Base medium (DM-Base), containing DMEM without Phenol Red, supplemented with 10% FCS, 4mM L-Glutamine and 1% Pen/Strep (v/v) at 37° C in an incubator with 5% CO2 atmosphere and 85%-90% relative humidity over 72hours. After this pre-incubation, DM-Base is replaced by DM-Supplemented, containing DM-Base plus 200nM Insulin, plus 10µM Rosiglitazone. Test compounds (e.g.: chicoric acid) were added in DM-Supplemented, and kept in culture for 7 consecutive days. Each experiment was performed in triplicates. Every second day medium and compounds were renewed.
Cells were fixed by adding 1mL of 60% 2-Propanot in PBS to each well and incubated for 1.5h at 4°C. The cells were then twice washed with 1mL PBS/well. […]
Lipid droplets were quantified with the Cellomics® Array Scan® VTI HCS Reader. Fat droplets were detected with the provided SpotDetector® Bio-Application. The fluorescent dye, BODIPY® 493/503, was used to visualise and quantify fat droplets (number, area, intensity) in differentiated C3H10 T1/2 adipocytes. […] Channel one (Ch1) applies the XF93-Hoechst filter and is the focus channel in which objects (nuclei) are identified, whereas the spots (fat droplets) are detected in channel two (Ch2) using a XF93-FITC filter.

As to `O=C(/C=C/c1ccc(O)c(O)c1)O[C@H](C(=O)O)[C@H](OC(=O)/C=C/c1ccc(O)c(O)c1)C(=O)O` (stereo in doubt) [chicoric acid, Chicoric acid], the inhibition at 50 µM runs as follows: (read-out: decrease in the average number of lipid droplets per adipocyte) 69%; (read-out: decrease in the average size of the lipid droplets in adipocytes) 42%.
